# Measurements reported in the supplement of paper PMC6045584.
# ± gives the standard deviation of the averaged measurements.
# Experiments:
# SNX-5422 = compound: CC1(C)CC(=O)c2c(C(F)(F)F)nn(-c3ccc(C(N)=O)c(N[C@H]4CC[C@H](OC(=O)CN)CC4)c3)c2C1 [SNX-5422]; assay: surviving fraction relative to DMSO-only wells; higher = less growth inhibition; conditions: exposure time: 5 days
# Summary of the method: (§1)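 Viability values are CellTiter-Glo luminescence readings, given as surviving fraction against the median of DMSO-only wells. The readings were taken after 10 minutes at room temperature, following five days of continuous exposure to inhibitors at 0.5, 1, 5, 10, 50, 100, 500 and 1000 nM that began 24 hours after log-phase tumour cell lines were seeded at 250–500 cells per well in 384-well plates. Every line was screened three times and kept only if replicate Pearson r >0.7 and median Z' >0.3.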
# SAPACITABINE = compound: CCCCCCCCCCCCCCCC(=O)Nc1ccn([C@@H]2O[C@H](CO)[C@@H](O)[C@@H]2C#N)c(=O)n1 [SAPACITABINE]; assay: as above; conditions: exposure time: 5 days
# Summary of the method: as §1
Test System,surviving fraction (SNX-5422; 0.5 nM),surviving fraction (SNX-5422; 1 nM),surviving fraction (SNX-5422; 5 nM),surviving fraction (SNX-5422; 10 nM),surviving fraction (SNX-5422; 50 nM),surviving fraction (SNX-5422; 100 nM),surviving fraction (SNX-5422; 500 nM),surviving fraction (SNX-5422; 1000 nM),surviving fraction (SAPACITABINE; 0.5 nM),surviving fraction (SAPACITABINE; 1 nM),surviving fraction (SAPACITABINE; 5 nM),surviving fraction (SAPACITABINE; 10 nM),surviving fraction (SAPACITABINE; 50 nM),surviving fraction (SAPACITABINE; 100 nM),surviving fraction (SAPACITABINE; 500 nM),surviving fraction (SAPACITABINE; 1000 nM)
HCT15 LARGE INTESTINE,1.05 ± 0.018,1.03 ± 0.029,1.06 ± 0.051,1.09 ± 0.022,0.77 ± 0.12,0.303 ± 0.03,0.0797 ± 0.0015,0.074 ± 0.009,0.76 ± 0.048,0.693 ± 0.056,0.713 ± 0.064,0.298 ± 0.063,0.458 ± 0.074,0.143 ± 0.021,0.141 ± 0.013,0.0447 ± 0.0085
HELA CERVIX,1.08 ± 0.049,1.1 ± 0.031,1.09 ± 0.071,1.03 ± 0.028,1.2 ± 0.016,0.672 ± 0.081,0.228 ± 0.028,0.113 ± 0.016,0.847 ± 0.031,0.843 ± 0.033,0.837 ± 0.027,0.819 ± 0.018,0.954 ± 0.064,1.02 ± 0.013,0.826 ± 0.066,0.794 ± 0.035
HMT3552 BREAST,1.04,1.05,1.12,1.08,0.171,0.106,0.082,0.079,0.838 ± 0.009,0.825 ± 0.075,0.943 ± 0.027,0.887 ± 0.053,1.141 ± 0.0031,1 ± 0.093,0.418 ± 0.019,0.303 ± 0.024
HOS BONE,1.01 ± 0.015,1.04 ± 0.039,1.08 ± 0.016,1.04 ± 0.031,0.028 ± 0.001,0.051 ± 0.0078,0.0377 ± 0.0011,0.0417 ± 0.0021,0.899 ± 0.01,0.912 ± 0.0076,0.927 ± 0.018,0.911 ± 0.024,0.975 ± 0.041,0.831 ± 0.026,0.209 ± 0.035,0.224 ± 0.007
HOSMNG BONE,1.02 ± 0.017,1 ± 0.036,1.01 ± 0.04,0.973 ± 0.018,0.964 ± 0.084,0.299 ± 0.061,0.12 ± 0.012,0.108 ± 0.0047,0.96 ± 0.087,1.02 ± 0.032,1.06 ± 0.021,1.04 ± 0.031,1.12 ± 0.078,1.16 ± 0.016,0.948 ± 0.021,0.703 ± 0.046
HS57T BREAST,1.1 ± 0.014,1.09 ± 0.046,1.15 ± 0.034,1.13 ± 0.034,0.215 ± 0.011,0.22 ± 0.016,0.127 ± 0.0093,0.126 ± 0.0052,0.892 ± 0.016,0.885 ± 0.028,0.904 ± 0.051,0.853 ± 0.027,0.75 ± 0.024,0.612 ± 0.045,0.325 ± 0.037,0.246 ± 0.011
HS578T BREAST,1.07 ± 0.13,0.93 ± 0.099,0.871 ± 0.056,0.992 ± 0.22,0.387 ± 0.044,0.466 ± 0.021,0.298 ± 0.037,0.245 ± 0.029,0.81 ± 0.081,0.76 ± 0.082,0.841 ± 0.024,0.899 ± 0.077,1.13 ± 0.1,0.987 ± 0.19,0.681 ± 0.061,0.668 ± 0.13
HT1080 SOFT TISSUE,1.02 ± 0.016,1.03 ± 0.0021,1.062 ± 0.0015,1.155 ± 0.01,0.414 ± 0.034,0.238 ± 0.011,0.121 ± 0.007,0.12 ± 0.01,1 ± 0.028,1.01 ± 0.029,1.02 ± 0.053,0.935 ± 0.053,0.591 ± 0.025,0.434 ± 0.012,0.314 ± 0.012,0.271 ± 0.0047
HU09 BONE,1.02 ± 0.032,0.991 ± 0.095,1.03 ± 0.15,0.701 ± 0.017,0.0323 ± 0.0029,0.023 ± 0.0017,0.0257 ± 0.0021,0.03 ± 0.002,0.854 ± 0.062,0.812 ± 0.027,0.97 ± 0.061,0.882 ± 0.018,0.857 ± 0.021,0.537 ± 0.042,0.0813 ± 0.0049,0.0557 ± 0.0035
JURKAT HAEMATOPOIETIC AND LYMPHOID TISSUE,1.06 ± 0.014,1.05 ± 0.02,0.973 ± 0.082,0.942 ± 0.026,0.094 ± 0.0027,0.0437 ± 0.00058,0.0387 ± 0.0023,0.0443 ± 0.0011,0.944 ± 0.031,0.973 ± 0.03,0.52 ± 0.0059,0.245 ± 0.008,0.078 ± 0.0036,0.034 ± 0.001,0.0213 ± 0.00058,0.023
KPD BONE,1 ± 0.015,1.03 ± 0.07,1.02 ± 0.054,0.954 ± 0.026,0.265 ± 0.0056,0.109 ± 0.004,0.0673 ± 0.0015,0.0643 ± 0.0067,0.887 ± 0.013,0.886 ± 0.043,0.977 ± 0.045,0.946 ± 0.1,0.926 ± 0.024,0.815 ± 0.013,0.52 ± 0.028,0.344 ± 0.017
LNCAP PROSTATE,0.905 ± 0.09,0.969 ± 0.13,0.79 ± 0.043,0.774 ± 0.12,0.19 ± 0.022,0.124 ± 0.0057,0.05 ± 0.004,0.06 ± 0.0072,1.04 ± 0.033,1.09 ± 0.059,0.998 ± 0.053,0.913 ± 0.031,0.51 ± 0.012,0.329 ± 0.035,0.208 ± 0.014,0.159 ± 0.012
MCF7 BREAST,0.9 ± 0.094,0.925 ± 0.068,0.94 ± 0.066,0.906 ± 0.07,0.627 ± 0.02,0.465 ± 0.011,0.303 ± 0.015,0.321 ± 0.01,0.826 ± 0.037,0.803 ± 0.02,0.807 ± 0.015,0.716 ± 0.022,0.923 ± 0.028,0.833 ± 0.046,0.705 ± 0.033,0.538 ± 0.0081
MDAMB134 BREAST,0.902 ± 0.096,1.17 ± 0.23,0.892 ± 0.26,0.956 ± 0.052,0.789 ± 0.098,0.884 ± 0.036,0.543 ± 0.0057,0.54 ± 0.12,0.689 ± 0.09,0.627 ± 0.083,0.65 ± 0.046,0.7515 ± 0.0035,0.785 ± 0.036,0.821 ± 0.11,0.817 ± 0.058,0.916 ± 0.054
MDAMB157 BREAST,0.999 ± 0.11,0.958 ± 0.067,0.941 ± 0.059,1.11 ± 0.043,0.575 ± 0.12,0.266 ± 0.06,0.258 ± 0.043,0.191 ± 0.01,0.911 ± 0.034,0.859 ± 0.058,0.806 ± 0.077,0.755 ± 0.025,0.632 ± 0.069,0.619 ± 0.02,0.446 ± 0.02,0.306 ± 0.036
MDAMB231 BREAST,0.971 ± 0.021,0.998 ± 0.034,1.01 ± 0.035,1.02 ± 0.018,0.65 ± 0.032,0.455 ± 0.03,0.0989 ± 0.0031,0.0988 ± 0.0026,0.91 ± 0.016,0.919 ± 0.022,0.936 ± 0.031,0.927 ± 0.034,0.936 ± 0.043,0.882 ± 0.053,0.648 ± 0.03,0.516 ± 0.019
MDAMB361 BREAST,0.884 ± 0.064,0.974 ± 0.14,0.76 ± 0.043,0.816 ± 0.037,0.443 ± 0.025,0.879 ± 0.2,0.307 ± 0.0076,0.294 ± 0.015,0.711 ± 0.096,0.624 ± 0.029,0.662 ± 0.06,0.648 ± 0.069,0.868 ± 0.097,0.771 ± 0.1,0.908 ± 0.093,0.872 ± 0.041
MDAMB436 BREAST,0.91 ± 0.056,0.873 ± 0.066,0.892 ± 0.044,0.903 ± 0.12,0.471 ± 0.016,0.305 ± 0.0098,0.316 ± 0.013,0.326 ± 0.011,0.861 ± 0.07,0.795 ± 0.08,0.75 ± 0.074,0.719 ± 0.075,0.561 ± 0.029,0.497 ± 0.053,0.445 ± 0.049,0.352 ± 0.013
MDAMB453 BREAST,1.02 ± 0.034,1.08 ± 0.036,1.08 ± 0.028,1.08 ± 0.037,0.458 ± 0.055,0.254 ± 0.016,0.0493 ± 0.013,0.0633 ± 0.017,0.988 ± 0.053,0.968 ± 0.053,1 ± 0.058,1.03 ± 0.07,1.01 ± 0.022,1.01 ± 0.067,0.641 ± 0.033,0.407 ± 0.03
MDAMB468 BREAST,1.038 ± 0.0097,1.05 ± 0.097,1.1 ± 0.043,1.033 ± 0.009,0.138 ± 0.013,0.164 ± 0.021,0.221 ± 0.026,0.207 ± 0.031,0.811 ± 0.012,0.862 ± 0.087,0.88 ± 0.069,0.847 ± 0.086,0.792 ± 0.03,0.56 ± 0.07,0.204 ± 0.018,0.193 ± 0.028
MG63 BONE,1.04 ± 0.035,1.03 ± 0.047,1.09 ± 0.037,1.11 ± 0.053,0.496 ± 0.026,0.351 ± 0.029,0.13 ± 0.0085,0.136 ± 0.013,0.903 ± 0.027,0.898 ± 0.027,0.943 ± 0.021,0.9 ± 0.031,0.601 ± 0.014,0.357 ± 0.013,0.123 ± 0.019,0.217 ± 0.013
